# According to patent US7485651B2, “Compounds with activity on muscarinic receptors” (Acadia Pharmaceuticals, Inc., priority 1998, dated 2009):
# How the values were obtained:
# [1] = molecular target: T1, α-adrenergic receptor subtype 1D (Homo sapiens, UniProt P25100); assay: Test against other receptors: α-adrenergic 1D; assay type: cell-based
# T1 sequence (P25100 1-572): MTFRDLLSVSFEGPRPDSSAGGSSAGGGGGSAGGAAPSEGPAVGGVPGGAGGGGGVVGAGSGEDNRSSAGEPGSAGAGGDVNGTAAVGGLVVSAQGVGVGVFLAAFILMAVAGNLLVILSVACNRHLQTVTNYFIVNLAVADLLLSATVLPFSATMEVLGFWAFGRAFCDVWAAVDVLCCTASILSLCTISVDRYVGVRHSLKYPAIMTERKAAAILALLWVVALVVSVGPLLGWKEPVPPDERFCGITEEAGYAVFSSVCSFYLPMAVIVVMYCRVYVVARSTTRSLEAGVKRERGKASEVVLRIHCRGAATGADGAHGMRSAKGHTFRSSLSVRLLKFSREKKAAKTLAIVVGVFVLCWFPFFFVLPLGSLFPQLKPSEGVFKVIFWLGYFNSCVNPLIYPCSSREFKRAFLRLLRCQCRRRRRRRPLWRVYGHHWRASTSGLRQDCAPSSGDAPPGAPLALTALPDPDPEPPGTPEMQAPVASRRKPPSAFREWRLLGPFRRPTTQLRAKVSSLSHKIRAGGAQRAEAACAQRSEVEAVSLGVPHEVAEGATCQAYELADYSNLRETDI
# m1 receptor = molecular target: T2, m1 receptor (Homo sapiens, UniProt P11229); assay: R-SAT / NIH 3T3 cells transfected with m1 muscarinic receptor; assay type: cell-based
# T2 construct: expressed in transfected cells; host or cells: NIH 3T3 (ATCC CRL 1658)
# T2 sequence (P11229 1-460): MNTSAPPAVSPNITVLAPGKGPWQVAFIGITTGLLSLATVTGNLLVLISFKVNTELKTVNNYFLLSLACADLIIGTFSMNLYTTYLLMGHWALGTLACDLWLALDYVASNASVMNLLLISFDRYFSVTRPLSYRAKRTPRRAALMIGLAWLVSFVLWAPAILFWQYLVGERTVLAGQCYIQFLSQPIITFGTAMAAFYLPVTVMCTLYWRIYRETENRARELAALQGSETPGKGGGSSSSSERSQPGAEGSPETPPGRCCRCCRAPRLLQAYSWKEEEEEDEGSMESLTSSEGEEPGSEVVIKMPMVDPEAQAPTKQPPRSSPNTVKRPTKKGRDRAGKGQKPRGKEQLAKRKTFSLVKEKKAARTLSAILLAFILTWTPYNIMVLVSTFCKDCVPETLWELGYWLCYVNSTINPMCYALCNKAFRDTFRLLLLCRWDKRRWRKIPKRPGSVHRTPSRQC
# Protocol: Cell amplification is detected as increased levels of a marker also expressed by the cells.
# The cells were treated with trypsin-EDTA, spun down and plated at 2×10^6 per 15 cm dish in 20 m1 of DMEM containing 10% calf serum.
# On day one, the cells were transfected using the Superfect transfection reagent (available from Qiagen, Valencia, Calif.) in accordance with the manufacturer's instructions. Receptor DNA, β-gal DNA (pSI-β-galactosidase available from Promega, Madison, Wis.), chimeric Gq-i5 DNA for the m2 and m4 receptor subtype assays, and salmon sperm DNA (available from Sigma, St. Louis, […].) as filler to a total of 20 μg DNA was added per plate. Prior to addition to the plates, 60 μl Superfect was added to the DNA and mixed thoroughly by pipetting up and down several times. The mixture was incubated at room temperature for 10-15 minutes. The media were aspirated, and 12 ml fresh DMEM containing 10% calf serum and 50 units/m1 penicillin/streptomycin was added to the plates. The DNA-Superfect solution was mixed once more with a pipette and added to the plate which was swirled to distribute the DNA mixture evenly over the surface. The cells were incubated overnight at 37° C. and 5% CO2. After incubation, the media were aspirated and the plates were rinsed once with a 15 m1 volume of Hank's Buffered Saline. The plates were swirled to ensure thorough rinsing. 20 m1 fresh DMEM supplemented with 10% calf serum and 50 units/m1 penicillin/streptomycin was added to the plates. The cells were incubated for 24-48 hours until the plates were 100% confluent.
# Assay of NIH 3T3 cells transfected with muscarinic receptor subtypes (general procedure) DMEM containing 2% Cyto-SF3 was heated at 37° C. in a water bath under sterile conditions. Sterile working stock solutions of test compounds to be assayed were prepared by diluting the compounds in DMEM to 8× the final concentration for testing. The compound (carbachol) to be included in the assay as a positive control was also diluted in DMEM to 8× the final concentration. 50 μL of the DMEM containing 2% Cyto-SF3 was added to each well of 96-well microtiter plates under sterile conditions. Then, 16 of compound solutions were added to the top wells of the plates, and dilution of the solutions was performed by taking 16 μl of the compound solutions from the top wells and pipetting them into the next row of wells. This procedure was repeated with each subsequent row of wells, except that 50 μl medium alone was added to the baseline control wells (the wells that contain medium and cells, but not test compounds) and plate control wells (wells containing medium, but not test compounds and cells). The plates were then placed in an incubator at 37° C. to equilibrate temperature and pH.
# When the cell cultures had reached 100% confluence, the medium was aspirated and each plate was rinsed with 15 m1 Hank's Buffered Saline (HBS). The cells were left in the incubator for about 10-15 minutes until the HBS had turned slightly yellow. The HBS was then aspirated and 1 m1 trypsin was added to each plate and swirled so as to completely cover the plates. The edges of the plates were gently rapped several times to loosen the cells. After the cells had been dislodged from the surface, 8 m1 DMEM containing 10% calf serum and 50 units/m1 penicillin and 50 units/m1 streptomycin was added to inhibit the trypsin. The plates were rinsed with this medium, and the cells were pipetted into a tube. The cells were centrifuged at 1000 rpm for 5-10 min. in an IEC Centra CL2 centrifuge (produced by Sorvall). Afterwards, the medium was carefully aspirated so as not to dislodge the cells. The cell pellet was suspended in 1600 μl DMEM containing 10% calf serum and 50 units/m1 penicillin and 50 units/m1 streptomycin, after which 20 m1 DMEM supplemented with 2% Cyto-SF3 was added. 50 μl aliquots of this cell suspension was added to the wells of the 96-well microtiter plates prepared above (except for the plate control wells).
smiles,measurement,setting,value
"CCCCC1CCN(CCCC(=O)c2ccccc2C)CC1 [Compound A, 4-n-Butyl-1-[4-(2-methylphenyl)-4-oxo-1-butyl]piperidine]",agonist activity,[1],no significant activity
same,Emax at 1.5 µM,"m1 receptor; NIH3T3, m1, compound at 1.5 μM, maximum = response to 10 μM carbachol, read-out: Cellular response as a percentage of the maximum response of the cells",107%
same,antagonism of carbachol-induced responses,m1 receptor; m1,not an antagonist
same,maximal response relative to reference compound carbachol,m1 receptor; m1 receptor,lower maximal response than the reference compound carbachol
same,agonist activity at the m1 receptor,m1 receptor; receptor transfected into separate cell cultures,potent partial agonist
